Data reported in US20230416261A1, “ETHANEDIAMINE-HETEROCYCLE DERIVATIVES AS INHIBITORS OF PROTEIN ARGININE METHYLTRANSFERASES” (Board of Regents, The University of Texas System, priority 2021, published 2023).

Tests used:
[1] = molecular target: T1, PRMT1 (Homo sapiens, UniProt Q99873); test: PRMT1 Enzymatic Assay (LANCE TR-FRET, methylation of histone H4 at Arg3); assay type: biochemical; set-up: purchased SignalChem P365-380G; conditions: PRMT1 1.5 nM, SAM 1 μM, biotinylated histone H4 (1-21) 25 nM; read-out: PRMT-1 IC50
T1 sequence (Q99873 whole entry): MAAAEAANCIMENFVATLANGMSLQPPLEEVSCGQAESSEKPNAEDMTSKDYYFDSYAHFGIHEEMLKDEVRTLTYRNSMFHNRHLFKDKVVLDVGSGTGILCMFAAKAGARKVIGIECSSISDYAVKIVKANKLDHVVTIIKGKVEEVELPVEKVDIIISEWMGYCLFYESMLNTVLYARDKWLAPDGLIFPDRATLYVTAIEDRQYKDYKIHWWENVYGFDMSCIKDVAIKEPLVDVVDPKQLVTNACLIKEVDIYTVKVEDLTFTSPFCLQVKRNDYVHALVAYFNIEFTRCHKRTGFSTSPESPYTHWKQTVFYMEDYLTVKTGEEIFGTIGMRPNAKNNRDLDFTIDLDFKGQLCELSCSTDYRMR
How it was run: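 PRMT1 (1.5 nM) preincubated 15 min with compound at room temperature, then reacted 1 h with 1 μM SAM and 25 nM biotinylated histone H4 (1-21) in 50 mM Hepes pH 8, 1 mM TCEP, 0.003% Tween-20. H4R3me detected by TR-FRET (665/620 nm ratio); IC50 from four-parameter logistic fit.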

[2] = test system: DOHH2 cells; test: DOHH2 Long Term Phenotypic Assay (7 days, Cell Titer-Glo viability); assay type: cell-based; conditions: Homo sapiens, DOHH-2, 168 h, Cell Titer-Glo 2.0
How it was run: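 DOHH2 lymphoma cells (250 per well) in RPMI-1640 with 10% FBS were exposed to 1:3 serially diluted compounds for 7 days at 37 °C, 5% CO2. Viability was read by CellTiter-Glo 2.0 luminescence, and IC50 values came from four-parameter logistic fits.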

[3] = test system: PATC53 cells; test: PATC53 Long Term Phenotypic Assay (14 days, crystal violet viability); assay type: cell-based; conditions: 336 h
How it was run: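 Cells seeded at 250 per well, allowed 24 h to settle, then treated with 1:3 serial dilutions of compound for 14 days at 37 °C, 5% CO2. Viability measured by crystal violet staining, solubilised in 10% HOAc, absorbance 590 nm; IC50 from four-parameter logistic fit.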

[4] = molecular target: T1, PRMT1; test: PRMT1 RKO Cellular Target Engagement Assay (In-Cell Western, asymmetric di-methyl arginine); assay type: cell-based; conditions: RKO cells, 48 hr compound incubation; read-out: RKO IC50 (PRMT-1 Target Engagement)
How it was run: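 RKO cells (1,000/well) received 1:3 serially diluted compound for 48 h at 37 °C, then were fixed, permeabilised and immunostained for asymmetric di-methyl arginine by In-Cell Western. The 800 nm antibody signal was normalised to CellTag 700 nm; IC50 from four-parameter logistic fit.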

| IC50 [1] [nM] | IC50 [4] [nM] | SMILES | IC50 [2] [nM] | IC50 [3] [nM] |
| --- | --- | --- | --- | --- |
| 156 | 1410 | CNCCN(C)Cc1nn2c(c1C1CCC(COC)(COC)CC1)CN(C(=O)C1CCC(OC)CC1)CC2 (centres unmarked) [Example 48, (3-(4,4-bis(methoxymethyl)-cyclohexyl)-2-((methyl(2-(methylamino)ethyl)amino)-methyl)-6,7-dihydropyrazolo-[1,5-a]pyrazin-5(4H)-yl)(4-methoxycyclohexyl)-methanone] | 284 | 247 |
| 13 | 329 | COCC1(COC)CCC(c2c(CN(C)CCN)nn3c2CN(C(=O)C2(F)CCC2)CC3)CC1 [Example 49, (2-(((2-aminoethyl)(methyl)-amino)methyl)-3-(4,4-bis-(methoxymethyl)cyclohexyl)-6,7-dihydropyrazolo[1,5-a]-pyrazin-5(4H)-yl)(1-fluoro-cyclobutyl)methanone] | 166 | 118 |
| 17 | 1240 | COCC1(COC)CCC(c2c(CN(C)CCN)nn3c2CN(C(=O)C2CCC(F)(F)CC2)CC3)CC1 [Example 50, (2-(((2-aminoethyl)(methyl)-amino)methyl)-3-(4,4-bis-(methoxymethyl)cyclohexyl)-6,7-dihydropyrazolo[1,5-a]-pyrazin-5(4H)-yl)(4,4-difluorocyclohexyl)-methanone] | 171 | 154 |
| 68 | 1110 | CNCCN(C)Cc1nn2c(c1C1CCC(COC)(COC)CC1)CN(C(=O)C1CC(F)(F)C1)CC2 [Example 53, (3-(4,4-bis(methoxymethyl)-cyclohexyl)-2-((methyl(2-(methylamino)ethyl)amino)-methyl)-6,7-dihydropyrazolo-[1,5-a]pyrazin-5(4H)-yl)(3,3-difluorocyclobutyl)-methanone] | 87 | 42 |
| 65 | 372 | CNCCN(C)Cc1nn2c(c1C1CCC(COC)(COC)CC1)CN(C(=O)C1CC(OC)C1)CC2 (centres unmarked) [Example 58, (3-(4,4-bis(methoxymethyl)-cyclohexyl)-2-((methyl(2-(methylamino)ethyl)amino)-methyl)-6,7-dihydropyrazolo-[1,5-a]pyrazin-5(4H)-yl)(3-methoxycyclobutyl)-methanone] | 131 | 131 |
| 54 | 345 | CNCCN(C)Cc1nn2c(c1C1CCC(COC)(COC)CC1)CN(C(=O)CC1CCC1)CC2 [Example 60, 1-(3-(4,4-bis(methoxy-methyl)cyclohexyl)-2-((methyl(2-(methylamino)-ethyl)amino)methyl)-6,7-dihydropyrazolo[1,5-a]-pyrazin-5(4H)-yl)-2-cyclobutylethan-1-one] | 82 | 33 |
| 23 | 1950 | COCC1(COC)CCC(c2c(CN(C)CCN)nn3c2CN(C(=O)C2CC(C)(C)C2)CC3)CC1 [Example 61, (2-(((2-aminoethyl)(methyl)-amino)methyl)-3-(4,4-bis-(methoxymethyl)cyclohexyl)-6,7-dihydropyrazolo[1,5-a]-pyrazin-5(4H)-yl)(3,3-dimethylcyclobutyl)-methanone] | 224 | 68 |
| 44 | 610 | CNCCN(C)Cc1nn2c(c1C1CCC(COC)(COC)CC1)CN(C(=O)C13CC(C)(C1)C3)CC2 [Example 63, (3-(4,4-bis(methoxymethyl)-cyclohexyl)-2-((methyl(2-(methylamino)ethyl)amino)-methyl)-6,7-dihydropyrazolo-[1,5-a]pyrazin-5(4H)-yl)(3-methylbicyclo[1.1.1]pentan-1-yl)methanone] | 67 | 16 |
| 121 | 128 | CNCCN(C)Cc1nn2c(c1C1CCC(COC)(COC)CC1)CN(C(=O)C(C)C(F)(F)F)CC2 (centres unmarked) [Example 68, 1-(3-(4,4-bis(methoxy-methyl)cyclohexyl)-2-((methyl(2-(methylamino)-ethyl)amino)methyl)-6,7-dihydropyrazolo[1,5-a]-pyrazin-5(4H)-yl)-3,3,3-trifluoro-2-methylpropan-1-one] | 71 | 41 |
| 57 | 142 | CNCCN(C)Cc1nn2c(c1C1CCC(COC)(COC)CC1)CN(C(=O)C1CC(C(F)(F)F)C1)CC2 (centres unmarked) [Example 74, (3-(4,4-bis(methoxymethyl)-cyclohexyl)-2-((methyl(2-(methylamino)ethyl)amino)-methyl)-6,7-dihydropyrazolo-[1,5-a]pyrazin-5(4H)-yl)(3-(trifluoromethyl)cyclobutyl)-methanone] | 93 | 54 |
| 91 | 116 | CNCCN(C)Cc1nn2c(c1C1CCC(COC)(COC)CC1)CN(C(=O)C1(C)CCCC1)CC2 [Example 80, (3-(4,4-bis(methoxymethyl)-cyclohexyl)-2-((methyl(2-(methylamino)ethyl)amino)-methyl)-6,7-dihydropyrazolo-[1,5-a]pyrazin-5(4H)-yl)(1-methylcyclopentyl)-methanone] | 104 | 70 |
